Results reported in patent US12239637B2, “Compositions and methods for treating neurological disorders” (priority 2018, dated 2025).
Marks after values point to notes of the source that are not given here.

Assays:
Assay type in all cases: in vivo, rhesus monkeys
hemiparkinsonian monkeys = assay: Behavioral analysis: parkinsonian rating scale (PD scale) and hand reaching task in hemiparkinsonian monkeys
Procedure: Female rhesus monkeys (6-8 years old; 5-7 kg) were used in this study. All animals were singly housed with a 12-h light/dark cycle. Purine monkey chow and water were available ad libitum. Diets were supplemented with fruit during the testing sessions. The study was performed in accordance with federal guidelines of proper animal care and with the approval of the IACUC. Monkeys were intoxicated with MPTP according to protocol described previously (12-16). Briefly, animals were tranquilized with ketamine (10 mg/kg, i.m.) and then maintained on an anesthetic plane with isoflurane (1-2%). The animals were put in the supine position. For each injection, a right-sided incision was made along the medial edge of the sternocleidomastoid muscle. The carotid sheath was opened and the common carotid artery, internal jugular vein, and vagus nerves were identified. The common carotid was exposed below the carotid bifurcation. The external carotid artery was then ligated. A 27 gauge butterfly needle was inserted into the common carotid artery in a direction retrograde to blood flow; for each injection, 20 ml of saline containing 3 mg of MPTP-HCl (Sigma) was infused at a rate of 1.33 ml/min (15 min). After the infusion was completed, 3 ml of saline was delivered, and then the incision was closed.
Monkeys displaying hemiparkinsonian symptoms 7 d after the first intracarotid injection were included in the study. […] The control group of hemiparkinsonian monkeys (n=4) received only banana as vehicle.
The animals were trained to a consistent level of performance before intracarotid injection of MPTP. Monkeys were rated thrice a week by an investigator blind to the treatment groups using a parkinsonian rating scale (PD scale) utilized to quantify the clinical status of the monkeys (13-16). The scale included ratings of 10 parkinsonian features (tremor, posture, locomotion, hypokinesia, bradykinesia, balance, fine and gross motor skills, startle response, and freezing). Each test consisted of twelve total trials alternating between arms, six per side. Delaying feeding time until after the task was completed ensured animals' compliance with the test. Data collected included the time taken for the animal to move its hand into the chamber where the fruit was located (reaction time), the time taken to pick up the fruit while the hand was in the chamber (reception time) and the total time taken to move the hand into the chamber, retrieve the fruit and bring the hand back out of the panel and into the cage (total time).
All values are expressed as means±SEM. Differences among means were analyzed by one-way ANOVA or Kruskal-Wallis test (comparison among all groups) and post-hoc pair-wise comparison. In other cases, two sample t tests were also used to compare control vs MPTP and MPTP vs MPTP+maraviroc. For behavioral analysis, one way repeated measure ANOVA models were used. Pair-wise comparisons were conducted with Bonferroni adjustment.

[1] = tested on: striatal dopamine, DOPAC and HVA; assay: HPLC analysis of striatal neurotransmitters in hemiparkinsonian monkeys; details: oral 1 mg/kg body wt/d for 30 d
Procedure: FIG. 8 (A-E). Maraviroc protects striatal dopamine in hemiparkinsonian monkeys. Naïve female rhesus monkeys received a right intracarotid injection of MPTP. […] MPTP group of monkeys also received normal banana as control. After 30 d of treatment, dopamine levels were measured in dorsomedial caudate (A), ventromedial caudate (B), dorsal putamen (C), ventral putamen (D), and nucleus accumbens (E). HPLC quantification of dopamine was performed by a single investigator blinded to the experimental conditions. Data are means±SEM of four monkeys per group. ap<0.001 vs MPTP-intact; bp<0.001 vs MPTP-lesion.
FIG. 9 (A-E). Maraviroc protects striatal DOPAC and HVA in hemiparkinsonian monkeys. Naïve female rhesus monkeys received a right intracarotid injection of MPTP. […] After 30 d of treatment, levels of DOPAC and HVA were measured in dorsomedial caudate (A), ventromedial caudate (B), dorsal putamen (C), ventral putamen (D), and nucleus accumbens (E). HPLC quantification of DOPAC and HVA was performed by a single investigator blinded to the experimental conditions. […]
(§1) At the end point, monkeys were anesthetized with pentobarbital (25 mg/kg intravenously) and killed via perfusion with 0.9% saline. […] These punches were processed for HPLC analysis (for quantification of neurotransmitters). […]
Samples were analyzed for neurotransmitters by an investigator blind to the treatment groups. […]

[2] = tested on: CD4+ and CD8+ T cells in the nigra; assay: Infiltration of CD4+ and CD8+ T cells into the nigra of hemiparkinsonian monkeys (immunostaining); details: oral 1 mg/kg body wt/d for 30 d from 7 d after MPTP; near blood vessel and in deep parenchyma of ventral midbrain
Description: FIG. 2 (A-E). […] Naïve female rhesus monkeys received a right intracarotid injection of MPTP. […] MPTP group of monkeys also received normal banana as control. After 30 d of treatment, ventral midbrain sections were DAB-stained for CD4 (A, vessel; B, parenchyma). C) Sections were double-labeled for CD4 and TH. CD4-positive cells were counted in two nigral sections (D, within 100 μm around vessel; E, parenchyma within 100 to 200 μm around vessel) of each of four monkeys (n=4) per group. ap<0.001 vs. control; bp<0.01 vs. MPTP. Control represents the intact side of MPTP-intoxicated monkeys.
FIG. 3 (A-D). […] Naïve female rhesus monkeys received a right intracarotid injection of MPTP. […] MPTP group of monkeys also received normal banana as control. After 30 d of treatment, ventral midbrain sections were DAB-stained for CD8 (A, vessel; B, parenchyma). CD8-positive cells were counted in two nigral sections (C, within 100 μm around vessel; D, parenchyma within 100 to 200 μm around vessel) of each of four monkeys (n=4) per group. ap<0.001 vs. control; bp<0.01 vs. MPTP. Control represents the intact side of MPTP-intoxicated monkeys. […]
as §1

α-syn = assay: α-Synucleinopathy in the nigra of hemiparkinsonian monkeys (TH and α-syn double-labeling); details: oral 1 mg/kg body wt/d for 30 d
Description: FIG. 5 (A-C). […] Naïve female rhesus monkeys received a right intracarotid injection of MPTP. […] MPTP group of monkeys also received normal banana as control. After 30 d of treatment, nigral (A) sections were double-labeled for TH and α-syn. Total area (B) and integrated density (C) of α-syn bodies were quantified in two sections (two images per section) of each of four monkeys per group. ap<0.001 vs control (MPTP-intact); bp<0.001 vs MPTP-lesion.
(§2) Female rhesus monkeys (6-8 years old; 5-7 kg) were used in this study. All animals were singly housed with a 12-h light/dark cycle. Purine monkey chow and water were available ad libitum. Diets were supplemented with fruit during the testing sessions. The study was performed in accordance with federal guidelines of proper animal care and with the approval of the IACUC. Monkeys were intoxicated with MPTP according to protocol described previously (12-16). Briefly, animals were tranquilized with ketamine (10 mg/kg, i.m.) and then maintained on an anesthetic plane with isoflurane (1-2%). The animals were put in the supine position. […]
as §1

[3] = tested on: iNOS, Iba1-positive microglia, GFAP-positive astrocytes in the SNpc; assay: Glial inflammation in the SNpc of hemiparkinsonian monkeys (Iba1, GFAP, iNOS immunofluorescence); details: oral 1 mg/kg body wt/d for 30 d
Description: FIG. 4 (A-E). […] After 30 d of treatment, nigral sections were double-labeled for Iba1 and iNOS (A) and GFAP and iNOS (B). Cells positive for Iba1 (C), GFAP (D) and iNOS (E) were counted using the olympus microsuite V software in two nigral sections (two images per slide) of each of four monkeys (n=4) per group. ap<0.001 vs. control; bp<0.001 vs MPTP; ns, not significant vs MPTP.
as §2, with “position. For each injection, a right-sided incision was made along the medial edge of the sternocleidomastoid muscle.” for “position.”
For immunofluorescence staining, anti-Iba-1 antibody (1:500), anti-iNOS antibody (1:1000), and anti-GFAP antibody (1:1000) were used. The samples were mounted and observed under an Olympus IX81 fluorescence microscope as described before (17-19).

[4] = tested on: TH-positive dopaminergic neurons and fibers; assay: TH immunostaining: dopaminergic neurons in the SNpc (stereology) and striatal TH fibers (optical density); details: oral 1 mg/kg body wt/d for 30 d, lesion side
Procedure: FIG. 6 (A-C). Oral maraviroc treatment protects dopaminergic neurons in the SNpc of hemiparkinsonian monkeys. Naïve female rhesus monkeys received a right intracarotid injection of MPTP. […] MPTP group of monkeys also received normal banana as control. A) After 30 d of treatment, nigral sections were immunostained for TH. B) A magnified image of TH-stained SNpc is shown. […] All counting were performed by a single investigator blinded to the experimental conditions. ap<0.001 vs MPTP-intact; bp<0.01 vs MPTP-lesion.
FIG. 7 (A-B). Oral maraviroc treatment protects THir fibers in the striatum of hemiparkinsonian monkeys. Naïve female rhesus monkeys received a right intracarotid injection of MPTP. […] MPTP group of monkeys also received normal banana as control. A) After 30 d of treatment, striatal sections were immunostained for TH. B) Optical density of TH fibers in caudate and putamen was calculated by digital image analysis. Six different striatal sections of each monkey were analyzed. ap<0.001 vs MPTP-intact; bp<0.01 vs MPTP-Caudate-lesion; cp<0.01 vs MPTP-Putamen-lesion.
Female rhesus monkeys (6-8 years old; 5-7 kg) were used in this study. […]
as §1

[5] = PD scale score after treatment, 1 mg/kg body wt/d orally, mean ± SEM, four monkeys

## maraviroc
Hemiparkinsonian monkeys; [5]
  Balance (0-3): 0.57 ± 0.04^a
  Brady kinesia (0-5): 0.85 ± 0.28^a
  Defense Reaction (0-2): 0.24 ± 0.07^a
  Freezing (0-2): 0.39 ± 0.03^a
  Gait (0-5): 0.25 ± 0.03^a
  General (Gross) motor skills (0-3), L Hand: 0.89 ± 0.05
  General (Gross) motor skills (0-3), R Hand: 0.01 ± 0.00
  Posture (0-3): 0.39 ± 0.04^a
  Tremor (0-3), L Hand: 0.42 ± 0.03^a
  Tremor (0-3), R Hand: 0.00 ± 0.00
Hemiparkinsonian monkeys; PD scale total score after treatment, 1 mg/kg body wt/d orally, mean ± SEM, four monkeys
  Total (Sum mean): 4.01 ± 0.40^a
Hemiparkinsonian monkeys; oral 1 mg/kg body wt/d for 30 d
  functional ability on clinical rating scale and operant motor test: significantly improved
Hemiparkinsonian monkeys; oral maraviroc
  motor deficits in a hand-reach task: reversed
[1]
  levels of DOPAC and HVA in different parts of striatum: restored
[1]; caudate, putamen, nucleus accumbens
  DA in different parts of striatum: pronounced preservation
[2]
  infiltration of CD4+ T cells into the nigra: significantly attenuated
  infiltration of CD8+ T cells into the nigra: significantly attenuated
α-syn
  α-syn pathology in the SNpc: almost missing
[3]
  expression of iNOS protein in the SNpc: reduced
[3]; GFAP- and Iba1-positive cells
  number of astrocytes and microglia in the SNpc: did not significantly reduce
[4]; caudate and putamen
  striatal TH fibers: significantly restored
[4]
  SNpc TH-positive neurons: significantly restored
